Measured values: patent publication US9650339B2, “Inhibitors of histone demethylases” (Gilead Sciences, Inc., priority 2013, dated 2017)

Columns and labels:
KDM4B (JMJD2B) = target: T1, KDM4B (JMJD2B) (Homo sapiens, UniProt O94953); assay: Histone lysine demethylase AlphaLISA assay, KDM4B; assay type: biochemical; conditions: read-out: KDM4B HDME Inhibition IC50
T1 construct: 2-500; purchased BPS; host or cells: Bac (baculovirus system)
T1 sequence (O94953 2-500): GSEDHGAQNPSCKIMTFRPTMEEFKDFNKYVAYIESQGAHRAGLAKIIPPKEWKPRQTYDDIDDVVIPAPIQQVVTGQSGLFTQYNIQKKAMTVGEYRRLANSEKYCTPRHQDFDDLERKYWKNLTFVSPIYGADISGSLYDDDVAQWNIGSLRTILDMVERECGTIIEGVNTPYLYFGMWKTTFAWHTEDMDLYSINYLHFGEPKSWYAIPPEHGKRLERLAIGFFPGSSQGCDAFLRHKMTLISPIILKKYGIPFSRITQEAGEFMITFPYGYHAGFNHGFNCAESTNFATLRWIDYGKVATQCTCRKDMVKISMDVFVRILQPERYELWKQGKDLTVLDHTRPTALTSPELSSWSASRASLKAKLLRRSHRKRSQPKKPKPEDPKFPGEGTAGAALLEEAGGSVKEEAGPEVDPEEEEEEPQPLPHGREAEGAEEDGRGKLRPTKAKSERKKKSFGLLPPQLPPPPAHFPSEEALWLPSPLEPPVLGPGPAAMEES
Protocol: (§1) Assays are performed analogously to the protocol described by PerkinElmer (Roy et al. PerkinElmer Technical Note: AlphaLISA #12, April 2011)
(§2) Enzymes are dissolved in enzyme buffer and incubated for 10 min before being added to 3% DMSO solutions of compounds in enzyme buffer. Incubated for another 10 minutes, before substrate solution is added and the reaction mixture is incubated at room temperature. 10 μL acceptor beads, suspended in Epigenetic Buffer (Perkin Elmer AL008) from stock, are added and the suspension is incubated in the dark at room temperature, before a suspension of streptavidin donor beads (Perkin Elmer 6760002) in Epigenetic Buffer is added. After incubation at room temperature in the dark the plates are read.
BK9M3: Biotin-ARTKQTAR(KMe3)STGGKAPRKQ-NH2 (Caslo, Denmark) […]
(§3) Substrate Solution: Substrate, 25 μM L-Asc, and 10 μM α-KG in Buffer A.

KDM3B (JMJD1B) = target: T2, KDM3B (JMJD1B) (Homo sapiens, UniProt Q7LBC6); assay: Histone lysine demethylase AlphaLISA assay, KDM3B; assay type: biochemical; conditions: read-out: KDM3B HDME Inhibition IC50
T2 construct: 842-1761; host or cells: Bac (baculovirus system)
T2 sequence (Q7LBC6 842-1761): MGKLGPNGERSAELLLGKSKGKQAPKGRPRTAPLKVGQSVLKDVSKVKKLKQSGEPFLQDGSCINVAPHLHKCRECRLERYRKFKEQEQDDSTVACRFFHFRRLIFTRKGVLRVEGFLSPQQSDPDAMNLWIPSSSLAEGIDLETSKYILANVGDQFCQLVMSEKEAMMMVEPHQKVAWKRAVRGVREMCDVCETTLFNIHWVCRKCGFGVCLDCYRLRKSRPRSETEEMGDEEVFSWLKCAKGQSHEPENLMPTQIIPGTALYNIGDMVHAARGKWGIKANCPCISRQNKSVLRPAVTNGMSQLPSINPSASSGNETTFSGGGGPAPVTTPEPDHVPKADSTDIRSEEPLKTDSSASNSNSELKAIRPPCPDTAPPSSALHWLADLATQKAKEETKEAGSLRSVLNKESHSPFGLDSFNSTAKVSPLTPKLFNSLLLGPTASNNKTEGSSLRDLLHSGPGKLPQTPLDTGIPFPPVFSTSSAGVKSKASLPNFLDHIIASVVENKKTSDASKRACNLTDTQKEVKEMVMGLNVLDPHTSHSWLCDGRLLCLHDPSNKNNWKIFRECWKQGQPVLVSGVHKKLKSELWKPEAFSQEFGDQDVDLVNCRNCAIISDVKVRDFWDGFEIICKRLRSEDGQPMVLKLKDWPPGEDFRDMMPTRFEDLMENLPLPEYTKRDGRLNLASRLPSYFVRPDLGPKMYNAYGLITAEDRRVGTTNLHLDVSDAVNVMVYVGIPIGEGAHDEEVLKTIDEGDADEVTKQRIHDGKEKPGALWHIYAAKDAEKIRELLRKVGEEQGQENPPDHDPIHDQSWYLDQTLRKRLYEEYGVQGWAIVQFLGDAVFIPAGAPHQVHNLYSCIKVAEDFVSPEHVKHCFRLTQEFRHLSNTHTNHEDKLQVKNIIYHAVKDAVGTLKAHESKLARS
Protocol: as §1
as §2, with “read. […]” for “read.”
BK9M2: Biotin-ARTKQTAR(KMe2)STGGKAPRKQ-NH2 (AnaSpec 64359) […]
as §3

MCF7 cells = assay: Cell proliferation assay MCF7; assay type: cell-based; conditions: MCF7 human breast cancer cells; 120 hours; ATPlite 1 Step
In short: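 After 120 h of compound exposure (duplicates, DMSO at most 0.5%) in DMEM GlutaMAX with 10% FBS, ATPlite 1 Step luminescence measured cellular ATP. Compound was added 24 h after seeding, at a density chosen for ~90% confluence at the end.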

| Structure (SMILES) | IC50 (KDM4B (JMJD2B)) [nM] | IC50 (KDM3B (JMJD1B)) [nM] | EC50 (MCF7 cells) [nM] |
| --- | --- | --- | --- |
| CN(C)CCCCNCc1cc(CNC2CC2)ccn1 [Compound 10, N-{[2-({[4-(dimethylamino)butyl]-amino}methyl)pyridin-4-yl]methyl}-cyclopropanamine] | > 2500 | > 2500 | – |
| CN(C)CCNCc1ccnc(CNCC(=O)N(C)C)c1 [Compound 15, 2-({[4-({[2-(dimethylamino)ethyl]-amino}methyl)pyridin-2-yl]methyl}amino)-N,N-dimethylacetamide] | 250 to 2500 | > 2500 | – |
| CNCc1ccnc(CNCCCN(C)Cc2ccccc2)c1 [Compound 17, benzyl(methyl){3-[({4-[(methylamino)methyl]-pyridin-2-yl)methyl)-amino]propyl}-amine] | 250 to 2500 | > 2500 | – |
| CN(C)CCNCc1cc(CNC(C#N)C2CC2)ccn1 (stereo not shown) [Compound 21, 2-cyclopropyl-2-({[2-({[2-(dimethylamino)ethyl]-amino}methyl)pyridin-4-yl]methyl}amino)-acetonitrile] | > 2500 | > 2500 | – |
| CN(C)CCCCNCc1cc(/C=N\C2CC2)ccn1 [Compound 45, N-{[2-({[4-(dimethylamino)butyl]-amino}methyl)-pyridin-4-yl]methylidene}-cyclopropanamine] | 250 to 2500 | > 2500 | – |
| O=C(CNCc1cc(/C=N/C2CC2)ccn1)N1CCC[C@@H]1CN1CCCC1 [Compound 49, 2-[({4-[N-cyclopropyl-carboximidoyl]pyridin-2-yl}methyl)amino]-1-[(2R)-2-(pyrrolidin-1-ylmethyl)pyrrolidin-1-yl]ethan-1-one] | < 250 | > 2500 | – |
| CCN(CCC#N)C(=O)CNCc1cc(/C=N/C2CC2)ccn1 [Compound 50, N-(2-cyanoethyl)-2-[({4-[N-cyclopropyl-carboximidoyl]-pyridin-2-yl}methyl)amino]-N-ethylacetamide] | < 250 | > 2500 | – |
| CN(Cc1ccccc1F)C(=O)CNCc1cc(/C=N/CCO)ccn1 [Compound 92, N-[(2-fluorophenyl)methyl]-2-[({4-[[(2-hydroxyethyl)imino]-methyl]pyridin-2-yl}methyl)amino]-N-methylacetamide] | – | – | > 2500 |
| OCC/N=C/c1ccnc(CNCCc2ccccc2OCc2ccccc2)c1 [Compound 93, 2-[({2-[({2-[2-(benzyloxy)phenyl]-ethyl}amino)methyl]-pyridin-4-yl}methylidene)-amino]ethan-1-ol] | – | – | > 2500 |
| CN(C)CCCCNCc1cc(C=O)ccn1 [Compound 108, 2-({[4-(dimethylamino)-butyl]amino}methyl)-pyridine-4-carbaldehyde] | – | > 2500 | – |
| CCN(CC)CCCCNC(=O)CNCc1cc(C=O)ccn1 [Compound 112, N-[4-(diethylamino)-butyl]-2-{[(4-formylpyridin-2-yl)methyl]amino}-acetamide] | – | > 2500 | – |

More lines, now with the values ahead:

| IC50 (KDM4B (JMJD2B)) [nM] | IC50 (KDM3B (JMJD1B)) [nM] | EC50 (MCF7 cells) [nM] | Structure (SMILES) |
| --- | --- | --- | --- |
| > 2500 | > 2500 | – | CC1CCCCN1CCCNCc1cc(CNC2CC2)ccn1 (stereo not shown) [Compound 11, N-{[2-({[3-(2-methylpiperidin-1-yl)propyl]amino}methyl)-pyridin-4-yl]methyl}-cyclopropanamine] |
| < 250 | > 2500 | – | CCCNCc1cc(CNC2CC2)ccn1 [Compound 12, N-({2-[(propylamino)methyl]-pyridin-4-yl}methyl)-cyclopropanamine] |
| 250 to 2500 | > 2500 | – | CN(C)C(=O)CNCc1cc(CNCCF)ccn1 [Compound 14, 2-{[(4-{[(2-fluoroethyl)amino]-methyl}pyridin-2-yl)methyl]amino}-N,N-dimethylacetamide] |
| > 2500 | > 2500 | – | c1ccc(CN2CCC[C@H]2CNCc2cc(CNCC3CC3)ccn2)cc1 [Compound 16, {[(2S)-1-benzylpyrrolidin-2-yl]methyl}[(4-{[(cyclopropylmethyl)-amino]methyl}pyridin-2-yl)methyl]amine] |
| < 250 | > 2500 | – | CC1CC1/N=C/c1ccnc(CNCC(=O)N(C)C)c1 (stereo not shown) [Compound 35, N,N-dimethyl-2-[({4-[N-(2-methylcyclopropyl)-carboximidoyl]pyridin-2-yl}methyl)amino]-acetamide] |
| < 250 | > 2500 | – | CCSCCNCc1cc(/C=N/C2CC2)ccn1 [Compound 39, N-{[2-({[2-(ethylsulfanyl)-ethyl]amino}methyl)pyridin-4-yl]methylidene}-cyclopropanamine] |
| < 250 | > 2500 | – | CN(CCCNCc1cc(/C=N/C2CC2)ccn1)Cc1ccccc1 [Compound 41, N-({2-[({3-[benzyl(methyl)amino]-propyl}amino)methyl]-pyridin-4-yl}methylidene)-cyclopropanamine] |
| 250 to 2500 | > 2500 | – | CN(C)CCCCCNCc1cc(/C=N/C2CC2)ccn1 [Compound 47, N-{[2-({[5-(dimethylamino)-pentyl]amino}-methyl)pyridin-4-yl]methylidene}-cyclopropanamine] |
| < 250 | > 2500 | – | CCN(CC)CCCCNC(=O)CNCc1cc(/C=N/C2CC2)ccn1 [Compound 48, 2-[({4-[N-cyclopropyl-carboximidoyl]pyridin-2-yl}methyl)amino]-N-[4-(diethylamino)-butyl]acetamide] |
| < 250 | > 2500 | – | CCN1CCCC1CNC(=O)CNCc1cc(/C=N/C2CC2)ccn1 (stereo not shown) [Compound 51, 2-[({4-[N-cyclopropyl-carboximidoyl]-pyridin-2-yl}methyl)-amino]-N-[(1-ethylpyrrolidin-2-yl)methyl]acetamide] |
| < 250 | > 2500 | – | CN(CCCn1cccn1)C(=O)CNCc1cc(/C=N/C2CC2)ccn1 [Compound 52, 2-[({4-[N-cyclopropyl-carboximidoyl]-pyridin-2-yl}methyl)amino]-N-methyl-N-[3-(1H-pyrazol-1-yl)propyl]acetamide] |
| – | – | > 2500 | CCN(CCC#N)C(=O)CNCc1cc(/C=N/CCO)ccn1 [Compound 94, N-(2-cyanoethyl)-N-ethyl-2-[({4-[[(2-hydroxyethyl)imino]-methyl]pyridin-2-yl}methyl)amino]-acetamide] |
| – | – | > 2500 | CC(C)C[C@H](NCc1cc(/C=N/CCO)ccn1)C(=O)N1CCCCC1 [Compound 95, (2S)-2-[({4-[[(2-hydroxyethyl)imino]-methyl]pyridin-2-yl}methyl)amino]-4-methyl-1-(piperidin-1-yl)pentan-1-one] |
| – | > 2500 | – | CN(C)CCNCc1cc(C=O)ccn1 [Compound 110, 2-({[2-(dimethylamino)-ethyl]amino}methyl)-pyridine-4-carbaldehyde] |
